{
  "source": "patent US20250057913A1",
  "about": "“USE OF SOMATOSTATIN AGONIST IN THE TREATMENT OF SSTR3 EXPRESSING TUMORS” (ITALFARMACO SPA, priority 2021, published 2025)",
  "key": {"[1]": {"test_system": "NFPAs in MENX (homozygous mutant) rats", "assay": "Efficacy against endogenous NFPAs in MENX rat model", "format": "in vivo", "settings": "for number of Ki67-positive cells per 100.000 μm^2: end of treatment", "method": "MRI was performed every 14 days and the tumor volume was normalized against the volume at day 0. Male and female rat tumors are shown separately. Data presented are the mean±SEM. #, not significant; *, p-value <0.05; **, p-value <0.001.\n(A, B) Number of Ki67-positive cells per 100.000 μm2 in tumors of rats belonging to the 2 groups (ITF2984-treated and control) and both sexes. Shown is the mean±SEM. *, p-value <0.05; **, p-value <0.001. […]\nAt the end of the treatment, pituitary tissues were collected for ex vivo analyses. […] The difference in the number of Ki67-positive cells between placebo-and ITF2984-treated female rats is significant (p=0.031). […]"}, "IGF1 levels": {"test_system": "IGF1 levels", "assay": "IGF1 levels in dogs", "format": "in vivo, dog"}, "SSTR3": {"target": "SSTR3 (Homo sapiens, UniProt P32745)", "sequence (P32745 whole entry)": "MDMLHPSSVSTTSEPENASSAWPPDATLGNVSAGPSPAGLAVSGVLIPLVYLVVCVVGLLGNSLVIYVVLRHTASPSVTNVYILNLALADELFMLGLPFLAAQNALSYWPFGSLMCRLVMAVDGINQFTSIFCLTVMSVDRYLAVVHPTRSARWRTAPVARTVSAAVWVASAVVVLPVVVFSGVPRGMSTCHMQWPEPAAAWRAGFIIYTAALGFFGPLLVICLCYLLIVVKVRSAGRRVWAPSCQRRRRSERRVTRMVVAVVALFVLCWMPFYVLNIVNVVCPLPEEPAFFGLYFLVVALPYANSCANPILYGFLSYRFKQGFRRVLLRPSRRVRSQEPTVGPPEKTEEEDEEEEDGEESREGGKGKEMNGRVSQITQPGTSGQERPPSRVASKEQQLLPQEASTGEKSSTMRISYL", "assay": "SSTR3 internalization in transfected HEK293 cells (confocal microscopy)", "format": "cell-based", "parameters": "expressed in transfected cells", "settings": "HEK293, 1 μM or 10 μM, 30 min", "description": "Cells were then fixed, stained with the anti-HA antibody and examined by confocal microscopy. Shown are representative images from one of at least three independent experiments performed in duplicate.\n(§1) HEK293 cells transfected with human SSTRs, and U20S cells transfected with human GFP-tagged receptors (SSTR2-tGFP, SSTR3-tGFP, SSTR5-tGFP). SST14 and SST28 were included as reference compounds in the first and second experiments, respectively."}, "SSTR3-tGFP": {"target": "SSTR3-tGFP (Homo sapiens, UniProt P32745)", "sequence (P32745 whole entry)": "as above", "assay": "Internalization of SSTR3 in U2OS transfected cells", "format": "cell-based", "parameters": "expressed in transfected cells; host or cells: U2OS", "description": "HEK293 cells transfected with human SSTRs, and U20S cells transfected with human GFP-tagged receptors (SSTR2-tGFP, SSTR3-tGFP, SSTR5-tGFP)."}, "SSTR5": {"target": "SSTR5 (Homo sapiens, UniProt P35346)", "sequence (P35346 whole entry)": "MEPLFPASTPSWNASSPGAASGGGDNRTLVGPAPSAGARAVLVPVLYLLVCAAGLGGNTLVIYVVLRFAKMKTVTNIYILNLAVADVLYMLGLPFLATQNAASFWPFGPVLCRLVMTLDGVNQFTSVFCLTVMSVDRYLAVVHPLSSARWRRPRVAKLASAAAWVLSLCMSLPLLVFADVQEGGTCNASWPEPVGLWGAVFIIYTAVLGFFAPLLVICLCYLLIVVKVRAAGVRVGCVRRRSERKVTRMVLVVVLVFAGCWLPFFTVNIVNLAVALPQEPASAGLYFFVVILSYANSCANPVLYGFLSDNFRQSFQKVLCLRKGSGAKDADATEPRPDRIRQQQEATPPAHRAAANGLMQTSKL", "assay": "SSTR5 internalization in transfected HEK293 cells", "format": "cell-based", "parameters": "expressed in transfected cells; host or cells: HEK293 co-expressing GIRK2-GFP", "description": "as §1"}, "[2]": {"test_system": "primary cultures of rat anterior pituitary cells", "assay": "Inhibition of GHRH-stimulated GH release in vitro", "format": "cell-based", "settings": "rat anterior pituitary primary cell cultures", "description": "FIG. 4. Inhibition of GHRH-stimulated GH release in vitro using primary cultures of rat anterior pituitary cells.\nResults are expressed as mean values±SD of 3 experiments."}},
  "data": [
    {"molecule": "COc1cc2cccc(OC)c2cc1C[C@H]1NC(=O)[C@H](Cc2ccc(O)cc2)NC(=O)[C@@H]2C[C@@H](OC(=O)NCCN)CN2C(=O)[C@H](Cc2ccccc2)NC(=O)[C@H](Cc2ccc(OCc3ccccc3)cc2)NC(=O)[C@H](CCCCN)NC1=O", "note": "[ITF2984, (3S,6R,9S,12S,15S,19R,20aS)-9-(4-aminobutyl)-15-benzyl-12-(4-(benzyloxy)benzyl)-6-((3,8-dimethoxynaphthalen-2-yl)methyl)-3-(4-hydroxybenzyl)-1,4,7,10,13,16-hexaoxoicosahydropyrrolo[1,2-a][1,4,7,10,13,16]hexaazacyclooctadecin-19-yl (2-aminoethyl)carbamate]", "values": [
      {"measurement": "signs of discomfort", "setting": "[1]; end of the treatment", "result": "no signs of discomfort"},
      {"measurement": "tumor volume (MRI)", "setting": "[1]; female rats, 56 days, 12.5 mg/kg every 14 days", "result": "only a slight increase in tumor volume"},
      {"measurement": "number of Ki67-positive cells per 100.000 μm^2", "setting": "[1]; female rats", "result": 134},
      {"measurement": "change in Ki67-positive cells versus placebo", "setting": "[1]; male rats", "result": "−33.5", "unit": "%"},
      {"measurement": "number of Ki67-positive cells per 100.000 μm^2", "setting": "[1]; male rats", "result": 250},
      {"measurement": "IGF1 levels", "setting": "IGF1 levels", "result": "decreased IGF1 levels"},
      {"measurement": "internalization of SSTR3", "setting": "SSTR3", "result": "strong internalization"},
      {"measurement": "Mean of internalized fluorescence, SSTR3", "setting": "SSTR3-tGFP; 1 μM", "result": 61.1, "unit": "AU"},
      {"measurement": "rank as SSTR3-tGFP internalization inducer", "setting": "SSTR3-tGFP; 1 μM", "result": "most potent inducer of receptor internalization"},
      {"measurement": "Mean of internalized fluorescence, SSTR3", "setting": "SSTR3-tGFP; 10 μM", "result": 62.5, "unit": "AU"},
      {"measurement": "internalization of SSTR5", "setting": "SSTR5", "result": "only a partial internalization"},
      {"measurement": "inhibition of GH release", "setting": "[2]", "result": "potently inhibited GH release"}
    ]}
  ]
}
